Measurements from patent publication US20030044399A1, “Method of treatment” (SmithKline Beecham Corporation, priority 1998, published 2003).
Where two headings read alike, the source gives them in different places.

What was measured:
Cruzain = Cruzain (Trypanosoma cruzi, UniProt P25779); experiment: Cysteine protease inhibition, progress curve method, cruzain; type: biochemical; conditions: 4 uM Ac-Lys-Glu-Lys-Leu-Arg-AMC, 100 mM Na acetate pH 5.5, 5 mM cysteine
Summary of the method: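 Kinetic constants from AMC-release progress curves over 20–30 min at ambient temperature in 100 mM Na acetate pH 5.5, 5 mM cysteine, 2% DMSO; enzyme added last to inhibitor plus substrate. Substrates: 10 uM Cbz-Phe-Arg-AMC (Leishmania, Schistosoma), 10 uM Cbz-Leu-Arg-AMC (falcipain), 4 uM Ac-Lys-Glu-Lys-Leu-Arg-AMC (cruzain). Ki,app from linear curves; time-dependent inhibition as kobs/[I].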

Rhodazain = Rhodazain (Trypanosoma brucei rhodesiense, UniProt Q95PM0); experiment: Cysteine protease inhibition, progress curve method, rhodazain; type: biochemical, Trypanosoma brucei rhodesiensi; conditions: 10 uM Cbz-Leu-Arg-AMC, 100 mM Na acetate pH 5.5, 5 mM cysteine
Method: Standard assay conditions for the determination of kinetic constants used 10 uM fluorogenic peptide substrate, Cbz-Phe-Arg-AMC for the cysteine proteases from Leishmania spp and Schistosoma Mansoni, Cbz-Leu-Arg-AMC for the cysteine proteases from Plasmodium falciparum and Trypanosoma brucei rhodesiensi, and Ac-Lys-Glu-Lys-Leu-Arg-AMC (4 uM final substrate concentration) for the cysteine protease from Trypoanosoma cruzi, and were determined in 100 mM Na acetate at pH 5.5 containing 5 mM cysteine. Stock substrate solutions were prepared at concentrations of […] in DMSO with 10 uM (4 uM for Ac-Lys-Glu-Lys-Leu-Arg-AMC) final substrate concentration in the assays. The final DMSO concentration was 2% and the final volume was 100 uL. All assays were conducted at ambient temperature. Product progress curves were generated over 20 to 30 minutes following formation of AMC product.
Potential inhibitors were evaluated using the progress curve method. Assays were carried out in the presence of variable concentrations of test compound. Reactions were initiated by addition of enzyme to buffered solutions of inhibitor and substrate. Data analysis was conducted according to one of two procedures depending on the appearance of the progress curves in the presence of inhibitors. For those compounds whose progress curves were linear, apparent inhibition constants (Ki,app) were calculated according to equation 1 (Brandt et al., Biochemitsry, 1989, 28, 140):
v=VmA/[Ka(1+I/Ki,app)+A] (1)
Where v is the velocity of the reaction with maximal velocity Vm, A is the concentration of substrate with Michaelis constant of Ka, and I is the concentration of inhibitor.
[AMC]=vsst+(v0−vss)[1−exp (−kobst)]/kobs (2)
Where [AMC] is the concentration of product formed over time t, v0 is the initial reaction velocity and vss is the final steady state rate. Values for kobs were then analyzed as a linear function of inhibitor concentration to generate an apparent second order rate constant (kobs/inhibitor concentration or kobs/[I]) describing the time-dependent inhibition. A complete discussion of this kinetic treatment has been fully described (Morrison et al., Adv. Enzymol. Relat. Areas Mol. Biol., 1988, 61, 201).
Exemplary inhibition data for the compounds used in the present method collected in accordance with the above-described procedure are listed in Table I.

Chain of Rhodazain (Q95PM0 entry or part of it): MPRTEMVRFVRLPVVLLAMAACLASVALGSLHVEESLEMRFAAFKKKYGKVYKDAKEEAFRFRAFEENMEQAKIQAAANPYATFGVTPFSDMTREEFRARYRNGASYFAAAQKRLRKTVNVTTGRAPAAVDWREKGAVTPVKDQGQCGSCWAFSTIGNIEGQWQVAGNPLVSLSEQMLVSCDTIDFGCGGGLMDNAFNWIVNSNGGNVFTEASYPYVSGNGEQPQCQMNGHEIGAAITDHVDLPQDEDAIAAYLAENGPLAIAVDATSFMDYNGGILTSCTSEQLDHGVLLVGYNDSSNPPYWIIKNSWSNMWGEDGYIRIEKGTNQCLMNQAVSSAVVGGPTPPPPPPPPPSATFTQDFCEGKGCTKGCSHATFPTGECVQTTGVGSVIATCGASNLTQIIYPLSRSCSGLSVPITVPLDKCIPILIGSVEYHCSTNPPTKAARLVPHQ
Chain of Cruzain (P25779 123-337): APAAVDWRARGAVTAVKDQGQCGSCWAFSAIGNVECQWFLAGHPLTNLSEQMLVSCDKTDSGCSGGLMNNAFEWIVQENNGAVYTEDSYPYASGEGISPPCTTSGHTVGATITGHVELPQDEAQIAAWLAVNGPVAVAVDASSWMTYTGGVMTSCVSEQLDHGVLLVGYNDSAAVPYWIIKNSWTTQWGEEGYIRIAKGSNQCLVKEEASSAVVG

CC(C)C[C@@H](NC(=O)c1cc2ccccc2s1)C(=O)N[C@@H]1CCCN(S(=O)(=O)c2ccccn2)CC1=O (stereo in doubt) [Example 31, Benzo[b]thiophene-2-carboxylic acid {(S)-3-methyl-1-[3-oxo-1-(pyridine-2-sulfonyl)-azepan-4-ylcarbamoyl]-butyl}amide]
Ki (Cruzain; read-out: Cruzain Ki): 7.2 nM
Ki (Rhodazain; Rhodazain Ki (nM)): 5 nM

COc1ccc2c(C)c(C(=O)NC(CC(C)C)C(=O)N[C@H]3CCN(S(=O)(=O)c4cccc[n+]4[O-])CCC3=O)oc2c1 (single isomer, unassigned) [Example 211]
Ki (Cruzain; read-out: Cruzain Ki): 10 nM
Ki (Rhodazain; Rhodazain Ki (nM)): 2.8 nM

Cc1c(C(=O)N[C@@H](CC(C)C)C(=O)N[C@H]2CCCN(S(=O)(=O)c3ccccc3F)CC2=O)oc2ccccc12 [Example 94, 3-methylbenzofuran-2-carboxylic acid-{(S)-1-[1-(2-fluoro-benzenesulfonyl)-3-oxo-azepan-4-ylcarbamoyl]-3-methyl-butyl}-amide]
Ki (Cruzain; read-out: Cruzain Ki): 8.6 nM
Ki (Rhodazain; Rhodazain Ki (nM)): 9.4 nM

Cc1c(C(=O)N[C@H](CC(C)C)C(=O)N[C@@H]2CCCN(S(=O)(=O)c3ccccn3)CC2=O)oc2ccccc12 (single isomer, unassigned) [Example 97]
Ki (Cruzain; read-out: Cruzain Ki): 4 nM
Ki (Rhodazain; Rhodazain Ki (nM)): 2.7 nM

COc1ccc2oc(C(=O)N[C@H](CC(C)C)C(=O)N[C@@H]3CCCN(S(=O)(=O)c4cccc[n+]4[O-])CC3=O)cc2c1 (single isomer, unassigned) [Example 63]
Ki (Cruzain; read-out: Cruzain Ki): 9.8 nM
Ki (Rhodazain; Rhodazain Ki (nM)): 5.9 nM

CC(C)C[C@H](NC(=O)c1cc2ccccc2o1)C(=O)N[C@H]1CCCN(S(=O)(=O)c2nccs2)CC1=O [Example 130, Benzofuran-2-carboxylic acid {(S)-3-methyl-1-[3-oxo-1-(thiazole-2-sulfonyl)-azepan-4-ylcarbamoyl]-butyl}amide]
Ki (Cruzain; read-out: Cruzain Ki): 2.5 nM
Ki (Rhodazain; Rhodazain Ki (nM)): 2.6 nM

CC(C)C[C@H](NC(=O)c1cc2ccccc2o1)C(=O)NC1CCCN(S(=O)(=O)c2cccc(F)c2)CC1=O (stereo partly drawn) [Example 183, Benzofuran-2-carboxylic acid {(S)-1-[-(3-fluoro-benzensulfonyl)-3-oxo-azepan-4-ylcarbamoyl]-3-methyl-1-butyl}-amide]
Ki (Cruzain; read-out: Cruzain Ki): 7.1 nM
Ki (Rhodazain; Rhodazain Ki (nM)): 6.5 nM

CC(C)C[C@@H](NC(=O)c1cc2ccccc2o1)C(=O)N[C@@H]1CCCN(S(=O)(=O)c2cccc[n+]2[O-])CC1=O [Example 49]
Ki (Cruzain; read-out: Cruzain Ki): 5.6 nM
Ki (Rhodazain; Rhodazain Ki (nM)): 3.1 nM

CC(C)C[C@@H](NC(=O)c1cc2cc(F)ccc2o1)C(=O)N[C@H]1CCCN(S(=O)(=O)c2cccc[n+]2[O-])CC1=O (single isomer, unassigned) [Example 194]
Ki (Cruzain; read-out: Cruzain Ki): 8.7 nM
Ki (Rhodazain; Rhodazain Ki (nM)): 6.7 nM

CC(C)C[C@H](NC(=O)c1cccc2ccccc12)C(=O)N[C@H]1CCCN(S(=O)(=O)c2ccccn2)CC1=O [Example 184, Naphthalene-1-carboxylic acid {(S)-3-methyl-1-[3-oxo-1-(pyridine-2-sulfonyl)-azepan-4-ylcarbamoyl]-butyl}-amide]
Ki (Cruzain; Cruzain Ki nM): 2.1 nM
Ki (Rhodazain; Rhodazain Ki (nM)): 1.8 nM

CC(C)C[C@@H](NC(=O)c1cc2sccc2s1)C(=O)N[C@@H]1CCCN(S(=O)(=O)c2ccccn2)CC1=O (single isomer, unassigned) [Example 98]
Ki (Cruzain; read-out: Cruzain Ki): 5.2 nM
Ki (Rhodazain; Rhodazain Ki (nM)): 3.9 nM

COc1cccc2oc(C(=O)N[C@@H](CC(C)C)C(=O)NC3CCCN(S(=O)(=O)c4cccc[n+]4[O-])CC3=O)c(C)c12 (stereo partly drawn) [Example 208, 4-Methoxy-3-methyl-benzofuran-2-carboxylic acid {(S)-3-methyl-1-[3-oxo-1-(1-oxy-pyridine-2-sulfonyl)-azepan-4-ylcarbamoyl]-butyl}-amide]
Ki (Cruzain; read-out: Cruzain Ki): 10 nM
Ki (Rhodazain; read-out: Rhodazain Ki): 4.2 nM

CC(C)C[C@@H](NC(=O)c1cnc2ccccc2n1)C(=O)N[C@@H]1CCCN(S(=O)(=O)c2ccccn2)CC1=O (stereo in doubt) [Example 30, Quinoxaline-2-carboxylic acid {(S)-3-methyl-1-[3-oxo-1-(pyridine-2-sulfonyl)-azepan-4-ylcarbamoyl]-butyl}amide]
Ki (Cruzain; read-out: Cruzain Ki): 17 nM
Ki (Rhodazain; Rhodazain Ki (nM)): 10 nM

CC(C)C[C@@H](NC(=O)c1nccc2ccccc12)C(=O)N[C@@H]1CCCN(S(=O)(=O)c2ccccn2)CC1=O (single isomer, unassigned) [Example 154]
Ki (Cruzain; read-out: Cruzain Ki): 4.4 nM
Ki (Rhodazain; Rhodazain Ki (nM)): 4.4 nM

COc1ccc2oc(C(=O)N[C@@H](CC(C)C)C(=O)N[C@H]3CCN(S(=O)(=O)c4cccc[n+]4[O-])CCC3=O)c(C)c2c1 [Example 205, 5-Methoxy-3-methyl-benzofuran-2-carboxylic acid {(S)-3-methyl-1-[3-oxo-1-(1-oxy-pyridine-2-sulfonyl)-azepan-4-ylcarbamoyl]-butyl}-amide]
Ki (Cruzain; read-out: Cruzain Ki): 5.2 nM
Ki (Rhodazain; Rhodazain Ki (nM)): 3.2 nM

Cc1cccnc1S(=O)(=O)N1CCC[C@@H](NC(=O)[C@@H](CC(C)C)NC(=O)c2cc3sccc3s2)C(=O)C1 [Example 160, Thieno [3.2-b]thiophene-2-carboxylic acid {(S)-3-methyl-1-[1-(3-methyl-pyridine-2-sulfonyl)-3-oxo-azepan-4-ylcarbamoyl]-butyl}amide]
Ki (Cruzain; read-out: Cruzain Ki): 7.4 nM
Ki (Rhodazain; Rhodazain Ki (nM)): 6.7 nM

CC(C)C[C@@H](NC(=O)c1ccc(Br)o1)C(=O)N[C@@H]1CCCN(S(=O)(=O)c2ccccn2)CC1=O (single isomer, unassigned) [Example 68]
Ki (Cruzain; read-out: Cruzain Ki): 3.3 nM
Ki (Rhodazain; Rhodazain Ki (nM)): 0.93 nM

COc1ccc2oc(C(=O)N[C@@H](CC(C)C)C(=O)N[C@H]3CCCN(S(=O)(=O)c4ccccc4F)CC3=O)cc2c1 [Example 92, 5-Methoxy-benzofuran-2-carboxylic acid-{(S)-1-[1-(2-fluoro-benzenesulfonyl)-3-oxo-azepan-4-ylcarbamoyl]-3-methyl-butyl}-amide]
Ki (Cruzain; read-out: Cruzain Ki): 49 nM
Ki (Rhodazain; Rhodazain Ki (nM)): 6.3 nM

CC(C)C[C@@H](NC(=O)c1cc2cc(F)c(F)cc2o1)C(=O)N[C@@H]1CCCN(S(=O)(=O)c2ccccn2)CC1=O (single isomer, unassigned) [Example 150]
Ki (Cruzain; read-out: Cruzain Ki): 5.4 nM
Ki (Rhodazain; Rhodazain Ki (nM)): 3.7 nM

CC(C)C[C@H](NC(=O)c1ccc2ccccc2n1)C(=O)N[C@H]1CCCN(C(=O)Nc2ccccc2F)CC1=O [Example 219, Quinoline-2-carboxylic acid {(S)-1-[1-(2-fluoro-phenylcarbamoyl)-3-oxo-azepan-4-ylcarbamoyl]-3-methyl-butyl}-amide]
Ki (Cruzain; read-out: Cruzain Ki): 8.4 nM
Ki (Rhodazain; Rhodazain Ki (nM)): 5.5 nM

Cc1c(C(=O)N[C@H](CC(C)C)C(=O)NC2CCCN(S(=O)(=O)c3cccc[n+]3[O-])CC2=O)oc2ccccc12 (stereo partly drawn) [Example 57, 3-Methyl-benzofuran-2-carboxylic acid {(S)-3-methyl-1-[3-oxo-1-(1-oxy-pyridine-2-sulfonyl)-azepan-4-ylcarbamoyl]-butyl}amide]
Ki (Cruzain; read-out: Cruzain Ki): 10 nM
Ki (Rhodazain; Rhodazain Ki (nM)): 5.4 nM

Cc1c(C(=O)N[C@H](CC(C)C)C(=O)N[C@@H]2CCCN(S(=O)(=O)c3cccc[n+]3[O-])CC2=O)oc2ccccc12 (single isomer, unassigned) [Example 99]
Ki (Cruzain; read-out: Cruzain Ki): 7.8 nM
Ki (Rhodazain; Rhodazain Ki (nM)): 5.1 nM

CC(C)C[C@@H](NC(=O)c1cc2cc(F)ccc2o1)C(=O)N[C@H]1CCCN(S(=O)(=O)c2cccc[n+]2[O-])CC1=O [Example 191, 5-Fluoro-benzofuran-2-carboxylic acid {(S)-3-methyl-1-[3-oxo-1-(1-ox-pyridine-2-sulfonyl)-azepan-4-ylcarbamoyl]-butyl}-amide]
Ki (Cruzain; read-out: Cruzain Ki): 12 nM
Ki (Rhodazain; Rhodazain Ki (nM)): 8.3 nM
